Data: patent US20260317319A1, “NOVEL ERGOLINES AND METHODS OF TREATING MOOD DISORDERS” (Gilgamesh Pharma Inc., priority 2023, published 2026)
Values joined by “and” are separate entries in the source; they are usually repeats but may differ in a detail not shown here. Identical values can stand only once. Like-named read-outs stand apart in the source and are kept apart here.

Key:
5-HT2B receptor = biological target: T1, 5-HT2B receptor (Homo sapiens, UniProt P41595); test: cell-based; type: cell-based; conditions: Ca2+ flux; for Emax: HEK293, agonist, HEK293, max dose, read-out: 5-HT2B % Act @ Max Dose; for EC50: agonist, HEK293
T1 construct: expressed in transfected cells; host or cells: HEK293, stably transfected
T1 sequence (P41595 whole entry): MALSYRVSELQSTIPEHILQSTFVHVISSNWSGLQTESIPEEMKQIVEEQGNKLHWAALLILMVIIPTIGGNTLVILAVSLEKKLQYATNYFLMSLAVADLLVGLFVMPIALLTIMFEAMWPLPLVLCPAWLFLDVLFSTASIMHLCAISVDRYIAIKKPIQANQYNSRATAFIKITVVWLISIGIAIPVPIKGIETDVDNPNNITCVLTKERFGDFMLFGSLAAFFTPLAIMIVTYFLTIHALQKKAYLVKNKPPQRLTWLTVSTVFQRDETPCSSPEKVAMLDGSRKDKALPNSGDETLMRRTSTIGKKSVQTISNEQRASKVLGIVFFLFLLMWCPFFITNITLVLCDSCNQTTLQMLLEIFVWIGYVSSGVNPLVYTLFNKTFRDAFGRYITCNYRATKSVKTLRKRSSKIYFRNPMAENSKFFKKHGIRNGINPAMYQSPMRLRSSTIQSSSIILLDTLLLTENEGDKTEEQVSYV
Procedure: (§1) Functional Assays at 5-HT2A, 5-HT2B, and 5-HT1A. Agonist activity at 5-HT2A, 5-HT2B, 5HT2C and 5-HT1A receptors was determined using a FLIPR Ca^2+ flux assay at WuXi AppTec (Hong Kong) Limited according to their standard protocols. Briefly, stably transfected cells expressing the receptor of interest and Gα15 in the case of 5-HT1A (HEK293 for 5-HT2A and 5-HT2B; CHO cells for 5-HT1A) were grown and plated in a 384 well plate and incubated at 37° C. and 5% CO2 overnight. A solution of 250 mM probenecid in 1 mL FLIPR assay buffer was prepared fresh. This was combined with a fluorescent dye (Fluo-4 Direct™) to make a final assay concentration of 2.5 mM. […] The fluorescent dye was then added to the assay plate along with assay buffer to a final volume of 40 μL. The cell plate was incubated for 50 min at 37° C. and 5% CO2 and placed into the FLIPR Tetra along with the compound plate. 10 μL of references and compounds were then transferred from the compound plate into the cell plate and the fluorescent signal was read.

5-HT1A receptor = biological target: T2, 5-HT1A receptor (Homo sapiens, UniProt P08908); test: cell-based; conditions: agonist, Ca2+ flux; for Emax: CHO, read-out: 5-HT1A % Act @ Max Dose; for EC50: CHO cells with Gα15
T2 construct: expressed in transfected cells; host or cells: CHO cells, stably transfected
T2 sequence (P08908 1-422): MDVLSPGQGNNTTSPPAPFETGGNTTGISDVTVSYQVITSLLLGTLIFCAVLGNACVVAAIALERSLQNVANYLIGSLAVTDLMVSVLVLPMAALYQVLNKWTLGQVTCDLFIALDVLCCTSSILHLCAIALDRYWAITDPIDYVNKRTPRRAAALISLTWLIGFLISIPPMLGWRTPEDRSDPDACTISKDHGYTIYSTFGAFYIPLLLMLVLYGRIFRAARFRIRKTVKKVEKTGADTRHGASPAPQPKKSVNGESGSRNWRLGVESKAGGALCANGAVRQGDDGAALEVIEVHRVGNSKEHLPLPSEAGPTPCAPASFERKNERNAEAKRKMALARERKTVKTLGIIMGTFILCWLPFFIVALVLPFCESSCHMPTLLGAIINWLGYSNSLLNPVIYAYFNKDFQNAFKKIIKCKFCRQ
Procedure: as §1

in vitro [1] = type: in vitro ADME, human; conditions: human, microsomes, HLM 0.50 mg/mL, NADPH 1 mM, 1 μM compound, pH 7.4, 37° C., 60 min; for microsomal CLint: read-out: Intrinsic clearance (Clint); for half-life: read-out: half-life (t1/2)
in vitro [2] = type: in vitro ADME, mouse; conditions: mouse, microsomes, MLM (male CD-1) 0.50 mg/mL, NADPH 1 mM, 1 μM compound, pH 7.4, 37° C., 60 min; for microsomal CLint: read-out: Intrinsic clearance (Clint); for half-life: read-out: half-life (t1/2)
Text: MLM Stability Pooled MLM from male CD-1 mice (BIOIVT M00501) were used.

in vitro [3] = type: in vitro ADME, rat; conditions: rat, microsomes, RLM (male Sprague-Dawley) 0.50 mg/mL, NADPH 1 mM, 1 μM compound, pH 7.4, 37° C., 60 min; for microsomal CLint: read-out: Intrinsic clearance (Clint); for half-life: read-out: half-life (t1/2)
Text: RLM Stability Pooled RLM from male Sprague-Dawley rats (Xenotech R1000) were used.

5-HT2A receptor [4] = biological target: T3, 5-HT2A receptor (Homo sapiens, UniProt P28223); test: biochemical; type: binding; parameters: expressed in transfected cells; host or cells: HEK293, stably transfected; conditions: [3H]ketanserin 1 nM; HEK293 stable cell line; 1 h, 25 °C
T3 sequence (P28223 whole entry): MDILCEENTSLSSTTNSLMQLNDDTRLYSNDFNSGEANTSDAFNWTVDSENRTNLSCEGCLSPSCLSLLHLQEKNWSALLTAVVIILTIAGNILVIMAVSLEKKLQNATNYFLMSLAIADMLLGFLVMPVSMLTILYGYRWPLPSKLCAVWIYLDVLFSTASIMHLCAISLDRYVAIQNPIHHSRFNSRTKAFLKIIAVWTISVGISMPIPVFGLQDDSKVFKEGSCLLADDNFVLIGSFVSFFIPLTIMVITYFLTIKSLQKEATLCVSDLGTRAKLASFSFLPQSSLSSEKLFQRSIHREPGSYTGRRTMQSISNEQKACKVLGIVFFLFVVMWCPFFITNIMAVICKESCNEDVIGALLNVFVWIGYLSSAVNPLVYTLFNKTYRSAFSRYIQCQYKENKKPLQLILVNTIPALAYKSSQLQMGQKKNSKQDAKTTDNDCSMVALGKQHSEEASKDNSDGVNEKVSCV
Procedure: Affinity of the test compounds for the 5-HT2A receptor was determined in radioligand binding experiments with [^3H]ketanserin by WuXi AppTec (Hong Kong) Limited, using methods adapted from the literature and under conditions described in Table 1.

5-HT2A receptor [5] = biological target: T3, 5-HT2A receptor; test: cell-based; type: cell-based; parameters: expressed in transfected cells; host or cells: HEK293, stably transfected; conditions: Ca2+ flux; for Emax: HEK293, agonist, read-out: 5-HT2A % Act @ Max Dose; for EC50: HEK293
Procedure: as §1

| Compound | Emax (5-HT2B receptor) | EC50 (5-HT2B receptor) | Emax (5-HT1A receptor; CHO cells with Gα15, max dose) | EC50 (5-HT1A receptor) | microsomal CLint (in vitro [1]) | half-life (in vitro [1]) | microsomal CLint (in vitro [2]) | half-life (in vitro [2]) | microsomal CLint (in vitro [3]) | half-life (in vitro [3]) | Ki (5-HT2A receptor [4]) | Emax (5-HT2A receptor [5]; HEK293, max dose) | EC50 (5-HT2A receptor [5]; agonist) | 5-HT1A % Act @ Max Dose (5-HT1A receptor; CHO cells with Gα15, max dose) | 5-HT2A % Act @ Max Dose (5-HT2A receptor [5]; agonist, HEK293, max dose) |
| --- | --- | --- | --- | --- | --- | --- | --- | --- | --- | --- | --- | --- | --- | --- | --- |
| CCCN(CC)C(=O)[C@@H]1C=C2c3cccc4[nH]cc(c34)C[C@H]2N(Cc2ccccc2)C1 [Compound 86, (6aR,9R)-7-benzyl-N-ethyl-N-propyl-4,6,6a,7,8,9-hexahydroindolo[4,3-fg]quinoline-9-carboxamide] | 7.82% | 1280 nM | 49.1% | 15500 nM | 128 µL/min/mg | 10.9 min | 380 µL/min/mg | 3.6 min | 117 µL/min/mg | 11.9 min | 1.6 nM | 67% | 933 nM | – | – |
| CCN(CC)C(=O)[C@@H]1C=C2c3cccc4[nH]cc(c34)C[C@H]2N(Cc2ccc3ccccc3c2)C1 [Compound 100, (6aR,9R)—N,N-diethyl-7-(naphthalen-2-ylmethyl)-4,6,6a,7,8,9-hexahydroindolo[4,3-fg]quinoline-9-carboxamide] | 18.4% | > 10000 nM | 68.4% | 20800 nM | 43.9 µL/min/mg | 31.6 min | 117 µL/min/mg | 11.8 min | 167 µL/min/mg | 8.3 min | 3.84 nM | 74.6% | 1080 nM | – | – |
| CC[C@@H](C)NC(=O)[C@@H]1C=C2c3cccc4[nH]cc(c34)C[C@H]2N(Cc2ccccc2)C1 [Compound 88, (6aR,9R)-7-benzyl-N—((R)-sec-butyl)-4,6,6a,7,8,9-hexahydroindolo[4,3-fg]quinoline-9-carboxamide] | 0.88% | > 10000 nM | 76.7% | 8710 nM | 455 µL/min/mg | 3 min | 774 µL/min/mg | 1.8 min | 246 µL/min/mg | 5.6 min | 3.1 nM | 73.6% | 347 nM | – | – |
| C[C@H]1C[C@H](C)N1C(=O)[C@@H]1C=C2c3cccc4[nH]cc(c34)C[C@H]2N(Cc2ccccc2)C1 [Compound 87, ((6aR,9R)-7-benzyl-4,6,6a,7,8,9-hexahydroindolo[4,3-fg]quinolin-9-yl)((2S,4S)-2,4-dimethylazetidin-1-yl)methanone] | 10% | > 3000 nM | 58.2% | 54100 nM | 97.2 µL/min/mg | 14.3 min | 681 µL/min/mg | 2 min | 60.1 µL/min/mg | 23 min | 2.1 nM | 61.2% | 669 nM | – | – |
| CCN(CC)C(=O)[C@@H]1C=C2c3cccc4[nH]cc(c34)C[C@H]2N(Cc2cccc(C)c2)C1 [Compound 98, (6aR,9R)—N,N-diethyl-7-(3-methylbenzyl)-4,6,6a,7,8,9-hexahydroindolo[4,3-fg]quinoline-9-carboxamide] | 3.37% | > 10000 nM | 31.2% | > 100000 nM | 91.4 µL/min/mg | 15.2 min | 470 µL/min/mg | 3 min | 717 µL/min/mg | 1.9 min | 8.26 nM | 76.5% | 431 nM | – | – |
| CCN(CC)C(=O)[C@H]1C=C2c3cccc4[nH]cc(c34)C[C@H]2N(Cc2ccc(C)cc2)C1 [Compound 97a, (6aR,9S)—N,N-diethyl-7-(4-methylbenzyl)-4,6,6a,7,8,9-hexahydroindolo[4,3-fg]quinoline-9-carboxamide] | – | – | – | – | – | – | – | – | – | – | > 1230 nM | – | > 1260 nM | – | – |
| CCCN(CC)C(=O)[C@@H]1C=C2c3cccc4[nH]cc(c34)C[C@H]2N(Cc2cccc(OC)c2)C1 [Compound 93, (6aR,9R)—N-ethyl-7-(3-methoxybenzyl)-N-propyl-4,6,6a,7,8,9-hexahydroindolo[4,3-fg]quinoline-9-carboxamide] | 1.24% | > 10000 nM | 21.1% | > 100000 nM | 152 µL/min/mg | 9.1 min | 600 µL/min/mg | 2.3 min | 423 µL/min/mg | 3.3 min | 4.73 nM | 44.6% | 1200 nM | – | – |
| CCN(CC)C(=O)[C@@H]1C=C2c3cccc4[nH]cc(c34)C[C@H]2N(Cc2cccs2)C1 [Compound 104] | – | 731 nM | – | 730 nM | – | – | – | – | – | – | 1.42 nM | – | 844 nM | – | – |
| CCN(CC)C(=O)[C@H]1C=C2c3cccc4[nH]cc(c34)C[C@H]2N(CC2CCCCC2)C1 [Compound 89a, (6aR,9S)-7-(cyclohexylmethyl)-N,N-diethyl-4,6,6a,7,8,9-hexahydroindolo[4,3-fg]quinoline-9-carboxamide] | – | – | – | – | 91.5 µL/min/mg | 15.2 min | 743 µL/min/mg | 1.9 min | 304 µL/min/mg | 4.6 min | 208 nM | 3.92% | > 1000 nM | – | – |
| CCN(CC)C(=O)[C@H]1C=C2c3cccc4[nH]cc(c34)C[C@H]2N(CC2CCCC2)C1 [Compound 90a, (6aR,9S)-7-(cyclopentylmethyl)-N,N-diethyl-4,6,6a,7,8,9-hexahydroindolo[4,3-fg]quinoline-9-carboxamide] | 21.9% | > 10000 nM | 135% | > 100000 nM | 158 µL/min/mg | 8.8 min | 712 µL/min/mg | 1.9 min | 288 µL/min/mg | 4.8 min | 55.6 nM | 25.7% | > 1000 nM | – | – |
| CCN(CC)C(=O)[C@@H]1C=C2c3cccc4[nH]cc(c34)C[C@H]2N(Cc2ncco2)C1 [Compound 74, (6aR,9R)—N,N-diethyl-7-(oxazol-2-ylmethyl)-4,6,6a,7,8,9-hexahydroindolo[4,3-fg]quinoline-9-carboxamide] | – | – | – | – | 45.5 µL/min/mg | 30.5 min | 83.3 µL/min/mg | 16.6 min | 71.7 µL/min/mg | 19.3 min | 52.5 nM | – | 289 nM and 54.3 nM | 51.28% and 82.73% | 63% and 89.01% |
| COc1cccc(CN2C[C@H](C(=O)N3[C@@H](C)C[C@@H]3C)C=C3c4cccc5[nH]cc(c45)C[C@H]32)c1 [Compound 94, ((2S,4S)-2,4-dimethylazetidin-1-yl)((6aR,9R)-7-(3-methoxybenzyl)-4,6,6a,7,8,9-hexahydroindolo[4,3-fg]quinolin-9-yl)methanone] | -1.21% | > 10000 nM | 64.8% | > 100000 nM | 116 µL/min/mg | 11.9 min | 1340 µL/min/mg | 1 min | 352 µL/min/mg | 3.9 min | 13.7 nM | 30.4% | 792 nM | – | – |
